The source of these data is ChEMBL document CHEMBL5143627, “Design, synthesis, and biological evaluation of polyphenol derivatives as DYRK1A inhibitors. The discovery of a potentially promising treatment for Multiple Sclerosis” (Bioorg Med Chem Lett, 2022).

Structures are written as SMILES. Active and inactive are the calls of the source. No cut-off for these calls is given here. Bounds are passed on as bounds.

In data set [1] the target is Dual specificity tyrosine-phosphorylation-regulated kinase 1A (Homo sapiens, UniProt Q13627). Kind of data set: Inhibition of DYRK1A (unknown origin) using HT-497 as substrate preincubated with compound followed by substrate addition and measured after 30 mins in the presence of ATP by ELISA analysis. On the technique in general: ELISA stands for enzyme-linked immunosorbent assay.

The subject of data set [2] is Mus musculus. Kind of data set: Anti-inflammatory activity in MOG (35 to 55 residues)-induced experimental autoimmune encephalomyelitis mouse model assessed as reversal of clinical scores at 15 mg/kg, INH administered twice daily for 25 days. The format is functional, organism-based. The following applies: time 25.0 day.
Data set [3] has as its system Mus musculus. The experiment in a line: Anti-inflammatory activity in MOG (35 to 55 residues)-induced experimental autoimmune encephalomyelitis mouse model assessed as reduction in brain IFNgamma level at 15 mg/kg, INH. Type of data set: functional. Set-up: scale not given: the % may be the effect or the level left.
Data set [4] concerns Mus musculus. Kind of data set: Anti-inflammatory activity in MOG (35 to 55 residues)-induced experimental autoimmune encephalomyelitis mouse model assessed as reduction in brain IL-17 level at 15 mg/kg, INH. The format is functional. On the set-up: scale not given: the % may be the effect or the level left.
Data set [5] has as its system Mus musculus. Kind of data set: Anti-inflammatory activity in MOG (35 to 55 residues)-induced experimental autoimmune encephalomyelitis mouse model assessed as reduction in brain TNFalpha level at 15 mg/kg, INH. Type of data set: functional, organism-based.
Data set [6] has as its system Mus musculus. The experiment in a line: Anti-inflammatory activity in MOG (35 to 55 residues)-induced experimental autoimmune encephalomyelitis mouse model assessed as reduction in spinal cord inflammation severity score at 15 mg/kg, INH by H&E staining based light microscopic analysis. The format is functional, organism-based.
Data set [7] relates to Mus musculus. The experiment in a line: Anti-inflammatory activity in MOG (35 to 55 residues)-induced experimental autoimmune encephalomyelitis mouse model assessed as reduction in spinal cord demyelination severity score at 15 mg/kg, INH by Luxol fast blue staining based light microscopic analysis. The format is functional, organism-based.
For data set [8], the system named is Mus musculus. The experiment in a line: Anti-inflammatory activity in MOG (35 to 55 residues)-induced experimental autoimmune encephalomyelitis mouse model assessed as reduction in spinal cord axonal neurodegeneration severity score at 15 mg/kg, INH by Bielschowsky silver staining based light microscopic analysis. The format is functional, organism-based.
The subject of data set [9] is Mus musculus. Kind of data set: Anti-inflammatory activity in MOG (35 to 55 residues)-induced experimental autoimmune encephalomyelitis mouse model assessed as reversal of clinical scores at 1 mg/kg, INH administered once daily for 25 days. Conditions: time 25.0 day. The format is functional, organism-based.
The species named for data set [10] is Mus musculus. The experiment in a line: Anti-inflammatory activity in MOG (35 to 55 residues)-induced experimental autoimmune encephalomyelitis mouse model assessed as reduction in spinal cord inflammation severity score by H&E staining based light microscopic analysis. Type of data set: functional, organism-based.
Data set [11] is filed under the species Mus musculus. The experiment in a line: Anti-inflammatory activity in MOG (35 to 55 residues)-induced experimental autoimmune encephalomyelitis mouse model assessed as reduction in spinal cord demyelination severity score by Luxol fast blue staining based light microscopic analysis. The format is functional, organism-based.
Data set [12] is filed under the species Mus musculus. Kind of data set: Anti-inflammatory activity in MOG (35 to 55 residues)-induced experimental autoimmune encephalomyelitis mouse model assessed as reduction in spinal cord axonal neurodegeneration severity score by Bielschowsky silver staining based light microscopic analysis. Type of data set: functional, organism-based.
Data set [13] is described as follows: Oral bioavailability in Sprague-Dawley rat at 100 mg/kg. Type of data set: ADME, organism-based. Conditions: in vivo.
Data set [14] can be described thus: Bioavailability in CF-1 mouse at 163.8 micromol/kg, IG measured upto 720 mins. Conditions: in vivo, po, 163.8 µmol/kg. The format is ADME, organism-based.

As for `O=C(O[C@@H]1Cc2c(O)cc(O)cc2O[C@H]1c1cc(O)c(O)c(O)c1)c1ccc(O)c(O)c1O`, in data set [1], the half-inhibitory concentration (IC50) (usually the concentration at which inhibition is half-maximal) was 0.108 µM. Same read-out and setting: the value for `O=C(O[C@@H]1Cc2c(O)cc(O)cc2O[C@H]1c1cc(O)c(O)c(O)c1F)c1cc(O)c(O)c(O)c1F` was 0.054 µM. On the same count and under the same terms, the value for `O=C(O[C@@H]1Cc2c(O)cc(O)cc2O[C@@H]1c1ccc(O)c(O)c1)c1cc(O)c(O)c(O)c1` [EPICATECHIN GALLATE] was 0.523 µM; that for `O=C(O[C@@H]1Cc2c(O)cc(O)cc2O[C@H]1c1cc(O)c(O)c(O)c1)c1ccc(O)c(O)c1` was 0.236 µM; that for `O=C(O[C@@H]1Cc2c(O)cc(O)cc2O[C@H]1c1cc(O)c(O)c(O)c1)c1cc(O)c(O)cc1C(F)(F)F` was 0.432 µM. Take `COc1c(O)cc([C@@H]2Oc3cc(O)cc(O)c3C[C@H]2OC(=O)c2cc(O)c(O)c(O)c2)cc1O`: the half-inhibitory concentration (IC50) in [1] was 5.8 µM. `O=C(O[C@@H]1Cc2c(O)cc(O)cc2O[C@H]1c1ccc(O)c(O)c1)c1cc(O)c(O)c(O)c1F` (racemic): the IC50 in data set [1] stood at 0.074 µM.

As to `O=C(O[C@@H]1Cc2c(O)cc(O)cc2O[C@H]1c1cc(O)c(O)c(O)c1)c1cc(O)c(O)cc1F`, the IC50 in data set [1] was 0.107 µM. Turning to `O=C(O[C@@H]1Cc2c(O)cc(O)cc2O[C@H]1c1cc(O)c(O)c(O)c1)c1cc(O)c(O)c(O)c1F`, the IC50 in data set [1] is 0.035 µM. For the same molecule, the result in the data set with Mus musculus [2], with Mus musculus [5], with Mus musculus [6], in the data set with Mus musculus [7] and in the data set on Mus musculus [8] was Active. Besides, the Activity with Mus musculus [3] was 90%; in the data set on Mus musculus [4], 79%. `O=C(O[C@@H]1Cc2ccccc2O[C@H]1c1cc(O)c(O)c(O)c1)c1cc(O)c(O)c(O)c1` (racemic): the IC50 in [1] came out at 0.422 µM.

With `O=C(O[C@@H]1Cc2ccccc2C[C@H]1c1cc(O)c(O)c(O)c1)c1cc(O)c(O)c(O)c1` (racemic), the IC50 in data set [1] came to 1.05 µM. As for `Cc1c([C@@H]2Oc3cc(O)cc(O)c3C[C@H]2OC(=O)c2cc(O)c(O)c(O)c2)cc(O)c(O)c1O`, the IC50 in data set [1] turned out to be 0.296 µM. Consider `O=C(O[C@@H]1Cc2c(O)cc(O)cc2O[C@H]1c1cc(O)c(O)c(O)c1)c1cc(O)c(O)cc1O`, for which the IC50 in data set [1] came to 0.172 µM.

As for `O=C(O[C@@H]1Cc2c(O)cc(O)cc2O[C@H]1c1cc(O)c(O)c(O)c1F)c1cc(O)c(O)c(O)c1`, the IC50 in data set [1] was 0.06 µM. Consider `O=C(O[C@@H]1Cc2c(O)cccc2O[C@H]1c1cc(O)c(O)c(O)c1)c1cc(O)c(O)c(O)c1` (racemic), for which the IC50 in data set [1] is 0.212 µM. On to `O=C(O[C@@H]1Cc2c(O)cc(O)cc2O[C@H]1c1cc(O)c(O)cc1F)c1cc(O)c(O)c(O)c1`, for which the IC50 in data set [1] worked out at 0.153 µM. In the case of `O=C(O[C@@H]1Cc2c(O)cc(O)cc2O[C@H]1c1cc(O)c(O)c(O)c1)c1cc(O)c(O)c(F)c1`, in [1], the IC50 was 0.145 µM. Consider `CCCCCCCCc1ccc(CCC(N)(CO)CO)cc1`, for which the result in the data set with Mus musculus [9], in the data set filed under Mus musculus [10], in the data set filed under Mus musculus [11] and in the data set listed under Mus musculus [12] was Active. Take `COc1cc(C(=O)O[C@@H]2Cc3c(O)cc(O)cc3O[C@@H]2c2cc(O)c(O)c(O)c2)cc(O)c1O`: the IC50 in data set [1] was 0.429 µM. For `O=C(O[C@@H]1Cc2c(O)cc(O)cc2O[C@H]1c1cc(O)c(O)cc1F)c1cc(O)c(O)c(O)c1F`, the IC50 in data set [1] amounted to 0.115 µM.

For `O=C(O[C@@H]1Cc2c(O)cc(O)cc2O[C@@H]1c1cc(O)c(O)c(O)c1)c1cc(O)c(O)c(O)c1` [EPIGALOCATECHIN GALLATE], the bioavailability – broadly, dose-corrected exposure relative to a reference, in per cent – is no more than 5% in [13] and 12% in [14]. Further, the IC50 in data set [1] amounted to 0.232 µM. As for `COc1c(O)cc(C(=O)O[C@@H]2Cc3c(O)cc(O)cc3O[C@H]2c2cc(O)c(O)c(O)c2)cc1O`, the IC50 in [1] was found to be 25.1 µM. `O=C(O[C@@H]1Cc2c(O)cc(O)cc2O[C@H]1c1ccc(O)c(O)c1)c1cc(O)c(O)c(O)c1` [(-)-CATECHINGALLATE]: the IC50 in data set [1] came to 0.22 µM.

Turning to `Cc1c(C(=O)O[C@@H]2Cc3c(O)cc(O)cc3O[C@H]2c2cc(O)c(O)c(O)c2)ccc(O)c1O`, the IC50 in data set [1] was found to be 0.553 µM.
